What was measured:
EP2 [1] = target: T1, EP2 (Homo sapiens (Human), UniProt P43116); assay: EP2 cAMP functional assay; format: cell-based
EP4 [2] = target: T2, EP4 (Homo sapiens (Human), UniProt P35408); assay: EP4 radioligand competition binding ([3H]PGE2); conditions: HEK-293 cells stably expressing receptor, [3H]PGE2 radioligand
Method: HEK-293 cells stably expressing the human or feline FP receptor, or EP1, EP2, or EP4 receptors were washed with TME buffer, scraped from the bottom of the flasks, and homogenized for 30 sec using a Brinkman PT 10/35 polytron. TME buffer was added to achieve a final 40 ml volume in the centrifuge tubes (the composition of TME is 100 mM TRIS base, 20 mM MgCl2, […]; 10N HCl is added to achieve a pH of 7.4).
The cell homogenate was centrifuged at 19000 r.p.m. for 20 min at 4° C. using a Beckman Ti-60 rotor. The resultant pellet was resuspended in TME buffer to give a final 1 mg/ml protein concentration, as determined by Biorad assay. Radioligand binding competition assays vs. [^3H-]17-phenyl PGF2a (5 nM) were performed in a 100 μl volume for 60 min. Binding reactions were started by adding plasma membrane fraction. The reaction was terminated by the addition of 4 ml ice-cold TRIS-HCl buffer and rapid filtration through glass fiber GF/B filters using a Brandel cell harvester. The filters were washed 3 times with ice-cold buffer and oven dried for one hour.
[^3H—] PGE2 (specific activity 180 Ci mmol) was used as the radioligand for EP receptors. [^3H] 17-phenyl PGF2a was employed for FP receptor binding studies. […] 17-phenyl PGF2a and non-specific binding determined with 10^−5M of unlabeled PGE2, or 17-phenyl PGF2a, according to receptor subtype studied.

EP2 [3] = target: T1, EP2; assay: EP2 radioligand competition binding ([3H]PGE2); conditions: HEK-293 cells stably expressing receptor, [3H]PGE2 radioligand
Method: Competition binding experiments were performed in a medium containing Hank's balanced salt solution, Hepes 20 mM, pH 7.3, membranes (˜60 μg protein) or 2×10^5 cells from HEK 293 cells stably expressing human EP2 receptors, [^3H]PGE2 (10 nM) and various concentrations of test compounds in a total volume of 300 μl. Reaction mixtures were incubated at 23° C. for 60 min, and were filtered over Whatman GF/B filters under vacuum. Filters were washed three times with 5 ml ice-cold buffer containing 50 mM Tris/HCl (pH 7.3). Non-specific binding was estimated in the presence of excess unlabeled PGE2 (10 μM). Binding data fitted to the binding model for a single class of binding sites, using nonlinear regression analysis. IC50 values thus obtained were converted to Ki using the equation of Ki=(IC50/(1+[L]/KD) where [L] represents PGE2 concentration (10 nM) and KD the dissociation constant for [^3H]PGE2 at human EP2 receptors (40 nM). […]
The cell homogenate was centrifuged at 19000 r.p.m. for 20 min at 4° C. using a Beckman Ti-60 rotor. The resultant pellet was resuspended in TME buffer to give a final 1 mg/ml protein concentration, as determined by Biorad assay. […]
[^3H—] […] 17-phenyl PGF2a and non-specific binding determined with 10^−5M of unlabeled PGE2, or 17-phenyl PGF2a, according to receptor subtype studied.

EP4 [4] = target: T2, EP4; assay: EP4 cAMP functional assay; format: cell-based

T2 sequence (P35408 whole entry): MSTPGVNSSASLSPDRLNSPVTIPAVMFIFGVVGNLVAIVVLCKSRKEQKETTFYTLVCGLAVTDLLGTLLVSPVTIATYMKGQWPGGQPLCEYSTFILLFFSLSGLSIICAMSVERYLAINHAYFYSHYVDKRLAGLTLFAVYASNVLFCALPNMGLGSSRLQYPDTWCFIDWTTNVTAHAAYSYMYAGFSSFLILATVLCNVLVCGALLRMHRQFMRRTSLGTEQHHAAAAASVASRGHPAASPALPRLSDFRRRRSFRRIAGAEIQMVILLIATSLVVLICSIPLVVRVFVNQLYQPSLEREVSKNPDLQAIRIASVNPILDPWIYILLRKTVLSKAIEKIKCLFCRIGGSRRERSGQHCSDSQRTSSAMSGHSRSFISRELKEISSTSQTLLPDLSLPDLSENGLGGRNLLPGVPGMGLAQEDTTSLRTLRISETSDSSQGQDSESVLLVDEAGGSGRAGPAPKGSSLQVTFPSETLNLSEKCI
T1 sequence (P43116 whole entry): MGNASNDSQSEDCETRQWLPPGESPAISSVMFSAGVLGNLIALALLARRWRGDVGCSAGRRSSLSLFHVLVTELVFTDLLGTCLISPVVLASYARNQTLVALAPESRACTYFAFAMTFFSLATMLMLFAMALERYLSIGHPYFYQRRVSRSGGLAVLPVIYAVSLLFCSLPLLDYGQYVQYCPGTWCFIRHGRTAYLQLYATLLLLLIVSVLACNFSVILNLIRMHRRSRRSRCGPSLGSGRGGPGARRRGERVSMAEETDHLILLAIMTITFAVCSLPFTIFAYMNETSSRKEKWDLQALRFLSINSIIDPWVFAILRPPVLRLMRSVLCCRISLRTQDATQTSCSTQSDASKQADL

Work on `O=C(O)c1ccc(CCCN2[C@@H](/C=C/C(O)Cc3cccc(C(F)(F)F)c3)CCS2(=O)=O)s1` (stereo partly drawn) [Compound 14, 5-(3-((3R)-3-((E)-3-Hydroxy-4-(3-(trifluoromethyl)phenyl)but-1-en-1-yl)-1,1-dioxidoisothiazolidin-2-yl)propyl)thiophene-2-carboxylic acid] yielded an EC50 (EP2 [1]) of 38 nM, an EC50 (EP4 [2]) of 53 nM and an EC50 (EP2 [3]) of 96 nM. For the same compound, the EC50 (EP4 [4]) was 1 nM.

Source: patent US9340534B2, “Compounds and methods for treating ocular diseases” (Allergan, Inc., priority 2014, dated 2016)
